The values that follow come from US11730788B2, “Use of peptides as therapeutic agent for autoimmune diseases and bone diseases” (KINE SCIENCES CO., LTD., priority 2017, dated 2023).

The subject of assay [1] is collagen-induced arthritis (CIA) mouse model. Nature of the assay: Rheumatoid arthritis treatment effect in collagen-induced arthritis (CIA) mouse model. It is filed as in vivo, DBA/1J mouse. The settings on record: intraperitoneal, 3 times a week after second immunization; versus vehicle PBS; similar efficacy to positive control MTX. The procedure: In order to confirm a rheumatoid arthritis improvement effect of the peptides prepared in Example 1, a rheumatoid arthritis mouse model was prepared with reference to a known literature (Nat Protoc. 2007; 2 (5): 1269-75.).
Specifically, a CIA mouse model is a mouse model most commonly used in a rheumatoid arthritis animal test as an autoimmune disease arthritis model having characteristics similar to human rheumatoid arthritis. In the CIA mouse model, bovine type II collagen (Chondrex, USA) was mixed and emulsified with a Freund's complete adjuvant (Chondrex, USA) at 1:1, and then first immunization was performed by injecting 50 μl of the emulsified collagen solution intradermally into a 6-week-old DBA/1J mouse tail. On 2 weeks after the first immunization, bovine type II collagen was mixed and emulsified with a Freund's incomplete adjuvant (Chondrex, USA) at 1:1, and then second immunization (boosting) was performed by injecting 50 μl of the emulsified collagen solution induced) intradermally into the mouse tail. After the second immunization, each peptide was intraperitoneally administered 3 times a week from the following day to observe a therapeutic effect of the peptides for rheumatoid arthritis.
In order to examine the progression of rheumatoid arthritis according to the peptide treatment of the present invention, the severity of rheumatoid arthritis over time was evaluated and measured by a rheumatoid arthritis progress index.
At this time, the arthritis progress index was evaluated as Points 0 to 4 per leg in accordance with the arthritis progress evaluation criteria by Rossoliniec, etc. in Table 2 below and shown to total Points 0 to 16 (sum of four legs). Thereafter, an average value of the results evaluated by the two observers was calculated to quantify the severity of arthritis.

In assay [2] the test system is Th17 cell differentiation of naive CD4+ T cells. Nature of the assay: Th17 cell differentiation inhibitory effect (CD4+IL-17+ T cell population). It is filed as cell-based, mouse. The note with it: IL-6 20 ng/ml + TGF-beta 5 ng/ml + TCR activation; peptide 10 ng/ml to 1000 ng/ml, 3 days; non-induced 1.2%, induced 3.14%. The procedure: In order to confirm the efficacy of the synthetic peptides prepared in Example 1 to inhibit Th17 cell differentiation, naive CD4^+ T cells extracted from lymph nodes of the mouse were treated with IL-6 20 ng/ml and TGF-beta 5 ng/ml together with TCR activation to induce differentiation into Th17 cells.
At the same time, three peptides Pep1, Pep6, and Pep8 disclosed in Table 2 of Test Example 1 were treated at a concentration of 10 ng/ml to 1000 ng/ml, respectively. Then, after incubation for 3 days, CD4+IL-17+ T cell population was analyzed.

In another assay the test system is IL-6. Briefly: Inflammatory cytokine IL-6 reduction effect (IL-6 ELISA, THP-1 derived M1 macrophages). It is filed as cell-based. The settings on record: LPS 10 ng/ml + IFN-gamma 20 ng/ml, peptide 100 ng/ml, 24 hours, similar to positive control MTX. On the procedure: In order to confirm the efficacy of the synthetic peptides prepared in Example 1 to inhibit inflammatory cytokine IL-6 secretion, a THP-1 monocytic cell line was treated with PMA 50 ng/ml for 48 hours to be differentiated into M1 macrophages. After treatment with LPS 10 ng/ml and IFN-gamma 20 ng/ml to the differentiated M1 macrophages, a positive control group MTX or the synthetic peptides of the present invention were co-treated at a concentration of 100 ng/ml, respectively. Thereafter, after incubation for 24 hours, IL-6 ELISA was performed using a cultured sup.
(In general: In an ELISA, binding on a coated surface is turned into a signal by an enzyme label.)

As for KDAKDA [Pep4], in assay [1], the “arthritis improvement (arthritis score, total Points 0 to 16)” value (shortened to “arthritis improvement”) is “efficacy of arthritis improvement was shown”.

With KDAKDAKDA [Pep8], the “arthritis improvement” value in assay [1] was “efficacy of arthritis improvement was shown”. Also, in assay [2], the “ratio of Th17 cells (CD4+IL-17+ T cell population)” value (“ratio of Th17 cells” for short) is recorded as “reduced similarly to the group that did not induce differentiation”. In the assay with IL-6, the “IL-6 secretion (ELISA of culture sup)” value is on record as “significantly reduced”.

For the substance KDGKDG [Pep1], in assay [1], the “arthritis improvement” value is reported as “efficacy of arthritis improvement was shown”. For the same substance, the “ratio of Th17 cells” value in assay [2] is “reduced similarly to the group that did not induce differentiation”.

With KDGKDGKDG [Pep5], in the assay with IL-6, the “IL-6 secretion (ELISA of culture sup)” value was “significantly reduced”.

On to KEAKEA [Pep3], for which the “IL-6 secretion (ELISA of culture sup)” value in the assay on IL-6 is “significantly reduced”.

As to KEAKEAKEA [Pep7], in assay [1], the “arthritis improvement” value is “efficacy of arthritis improvement was shown”. For the same substance, in the assay on IL-6, the “IL-6 secretion (ELISA of culture sup)” value was “significantly reduced”.

For KEGKEG [Pep2], in the assay with IL-6, the “IL-6 secretion (ELISA of culture sup)” value is reported as “significantly reduced”.

Take KEGKEGKEG [Pep6]: the “arthritis improvement” value in assay [1] was “efficacy of arthritis improvement was shown”. Moreover, in assay [2], the “ratio of Th17 cells” value is given as “reduced similarly to the group that did not induce differentiation”.
